Experimental data taken from article PMC11547576, “Identification of a New Promising BAG3 Modulator Featuring the Imidazopyridine Scaffold” (Molecules, 2024).

How the values were obtained:
HaCat cells = test: MTT cell viability assay on HaCat healthy cells; assay type: cell-based; conditions: Homo sapiens, 72 h, seven concentrations (1 to 100 μM)
Procedure: Elevated expression levels of BAG3 are strongly associated with signaling pathways in various types of malignant cells; consequently, reducing the activity of this co-chaperone inhibits cell proliferation, triggers apoptosis, and induces cell cycle arrest. To assess the activity of compounds 10, 12, and 14, cytotoxicity assays were performed on HeLa cells, which were chosen for their tendency to overexpress BAG3 proteins. MTT assays were conducted by exposing HeLa cells to different concentrations of the compounds (25, 50, and 100 µM) for 72 h. Additionally, 10% DMSO was used as a positive control, while 0.1% DMSO served as a negative control. […] The next step involved the assessment of the cytotoxicity of the most promising candidate, 10, on healthy cells to determine its safety profile. To achieve this, MTT assays were conducted on HaCat cells over 72 h. […]
Cell viability was assessed by measuring mitochondrial metabolic activity using a colorimetric assay, which involves the reduction of 3-[4,5-dimethylthiazol-2,5-diphenyl-2H-tetrazolium bromide (MTT) to purple formazan. […] Absorbance was measured at 570 nm using a Multiskan™ GO Microplate Spectrophotometer (Thermo Fisher Scientific, Waltham, MA, USA,). […]

HeLa cells = test: Annexin V-FITC/PI staining apoptosis assay (FACS); assay type: cell-based, human; conditions: 72 h
Procedure: Given BAG3’s well-documented anti-apoptotic role, annexin V-FITC/PI staining was performed to evaluate the effects of compound 10 on cell apoptosis. […] Specifically, at 50 µM, 81.0 ± 3.89% of the cells were apoptotic (p < 0.001 vs. Ctrl); at 30 µM, 70.5 ± 4.56% were apoptotic (p < 0.01 vs. Ctrl); and at 20 µM, 51.5 ± 2.23% were apoptotic (p < 0.05 vs. Ctrl) (Figure 3A,B).
Apoptosis of the cells was assessed using the Annexin V-FITC/PI reagents. Hela cells (20 × 10^3) were seeded into 24-well plates and incubated for 72 h with compound 10. After treatment, the collected cells were resuspended in a 100 μL assay buffer, then 5 μL Annexin V-FITC and 1 μL PI reagents were added following an incubation for 20 min at RT according to the manufacturer’s protocol (Dead Cell Apoptosis Kits with Annexin V for Flow Cytometry, Thermo Fisher Scientific). The cells were analyzed with a Becton Dickinson FACScan flow cytometer using the Cell Quest software, version 4 (Franklin Lakes, NJ, USA). See Supplementary Materials for the data plots (Figure S54).

caspase 3 = test: Caspase 3 determination by flow cytometry; assay type: cell-based, human; conditions: HeLa cells, 72 h, 50, 30 and 20 µM, vs control
Procedure: (§1) Furthermore, we investigated the expressions of caspases, key mediators of programmed cell death, in HeLa cells treated with compound 10 at the same concentrations used in the previous assays. […] To further confirm the pro-apoptotic mechanism induced by compound 10, Western blotting was performed to measure the expression and cleavage of caspase 3 [38, 39].
(§2) HeLa cells were seeded into 6-well plates (2.5 × 10^5 cells/well) and allowed to adhere for 24 h. The cells were then treated for 72 h with compound 10 at concentrations of 20, 30, and 50 µM, as well as with 0.1% DMSO negative (control), to assess caspase 3 and caspase 9 levels. After treatment, cells were collected, washed with PBS, and incubated at 4 °C first with a fixing buffer (containing 1% formaldehyde and 1% FBS in PBS) for 20 min, followed by permeabilization with fix perm solution (fixing buffer containing 0.1% Triton X-100) for 30 min. Next, the cells were incubated with anti-caspase 3 (1:500; SC-7272, Santa Cruz, CA, USA) and anti-caspase 9 (1:50; BS-0049R, Bioss Antibodies, Woburn, MA, USA) antibodies for 30 min at 4 °C. […] Cell fluorescence was then evaluated using a fluorescence-activated cell sorter (FACSscan, Becton Dickinson, Milan, Italy) and analyzed with Cell Quest software (4.0, Becton Dickinson, North Ryde, Australia). […]

caspase 9 = test: Caspase 9 determination by flow cytometry; assay type: cell-based, human; conditions: HeLa cells, 72 h, 50, 30 and 20 µM, vs control
Procedure: as §1, §2

SMILES: CC(C)Nc1c(-c2ccccc2Br)nc2ccc(Cl)cn12 [Compound 10, 2-(2-bromophenyl)-6-chloro-N-isopropylimidazo[1,2-a]pyridin-3-amine]
- IC50 (HaCat cells): 81.3 ± 4.83 µM
- apoptotic cells (HeLa cells; 20 µM): 51.5 ± 2.23%
- apoptotic cells (HeLa cells; 30 µM): 70.5 ± 4.56%
- apoptotic cells (HeLa cells; 50 µM): 81.0 ± 3.89%
- activation of caspase 3 (caspase 3): pronounced, dose-dependent activation
- activation of caspase 9 (caspase 9): pronounced, dose-dependent activation
